Measurements as given in patent US12692254B2, “Benzimidazole inhibitors of PAD enzymes” (BRISTOL-MYERS SQUIBB COMPANY, priority 2018, dated 2026).

The compounds below were run against human PAD4 (hPAD4) (Homo sapiens, UniProt Q9UM07) (assay: RFMS human PAD4 functional assay (rapid-fire mass spectrum)). Details: 5 nM hPAD4 enzyme, 250 μM BAEE, 50 μM Calcium; 30 min preincubation, 90 min reaction at 37° C.
Format: biochemical
Procedure, shortened: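 PAD4 (10 nM) preincubated 30 min with compound (top final 50 μM), then BAEE substrate added in pH 7.5 HEPES buffer with DTT, 50 μM calcium, TPEN; 90 min at 37° C. After TCA quench, citrulline derivatized with phenyl glyoxal (4 mM final, 30 min, 37° C) and quantified by RapidFire MS against internal standard.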

human PAD4 (hPAD4), sequence (Q9UM07 whole entry): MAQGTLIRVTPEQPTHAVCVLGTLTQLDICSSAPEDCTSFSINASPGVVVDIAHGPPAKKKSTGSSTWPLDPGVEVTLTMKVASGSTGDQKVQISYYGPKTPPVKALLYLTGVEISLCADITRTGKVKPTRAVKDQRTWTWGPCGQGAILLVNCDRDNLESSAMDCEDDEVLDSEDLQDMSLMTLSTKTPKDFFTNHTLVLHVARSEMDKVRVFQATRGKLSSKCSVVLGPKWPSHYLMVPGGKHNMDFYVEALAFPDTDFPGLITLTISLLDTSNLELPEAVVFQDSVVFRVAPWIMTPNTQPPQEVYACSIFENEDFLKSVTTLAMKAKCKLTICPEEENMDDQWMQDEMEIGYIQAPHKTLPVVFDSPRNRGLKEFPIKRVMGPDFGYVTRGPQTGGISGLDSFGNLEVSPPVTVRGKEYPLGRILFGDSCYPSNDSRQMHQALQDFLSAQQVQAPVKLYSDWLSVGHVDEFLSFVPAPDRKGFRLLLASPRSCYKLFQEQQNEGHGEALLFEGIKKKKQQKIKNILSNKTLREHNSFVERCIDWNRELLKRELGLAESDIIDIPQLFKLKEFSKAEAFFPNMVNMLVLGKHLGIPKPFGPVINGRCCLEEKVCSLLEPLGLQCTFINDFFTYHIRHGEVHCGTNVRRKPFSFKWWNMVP

`COc1cc(C(=O)N2CC3CCC2[C@@H]3N)cc2nc(-c3cc4ccccc4n3CC3CC3)n(CC3CN(C(=O)c4ccnc(Cl)c4)C3)c12` (stereo partly drawn) [Example 424, (7R)-2-(1-{[1-(2-chloropyridine-4-carbonyl)azetidin-3-yl]methyl}-2-[1-(cyclopropylmethyl)-1H-indol-2-yl]-7-methoxy-1H-1,3-benzodiazole-5-carbonyl)-2-azabicyclo[2.2.1]heptan-7-amine] and `COc1cc(C(=O)N2CC3CCC2[C@@H]3N)cc2nc(-c3cc4ccccc4n3CC3CC3)n(CC3CN(C(=O)c4ccn(C)c(=O)c4)C3)c12` (stereo partly drawn) [Example 433, 4-[3-({5-[(7R)-7-amino-2-azabicyclo[2.2.1]heptane-2-carbonyl]-2-[1-(cyclopropylmethyl)-1H-indol-2-yl]-7-methoxy-1H-1,3-benzodiazol-1-yl}methyl)azetidine-1-carbonyl]-1-methyl-1,2-dihydropyridin-2-one] are within 1.5-fold of each other in IC50: 0.025 µM for the first, 0.031 µM for the second.

`COc1cc(C(=O)N2C[C@H](N)C[C@@H](F)C2)cc2nc(-c3cc4ccccc4n3CC3CC3)n(CC3(F)CN(C(=O)c4ccccc4)C3)c12` [Example 425, (3R,5R)-1-{1-[(1-benzoyl-3-fluoroazetidin-3-yl)methyl]-2-[1-(cyclopropylmethyl)-1H-indol-2-yl]-7-methoxy-1H-1,3-benzodiazole-5-carbonyl}-5-fluoropiperidin-3-amine] and `COc1cc(C(=O)N2CC3CCC2[C@@H]3N)cc2nc(-c3cc4ccccc4n3CC3CC3)n(CC3(F)CN(C(=O)c4ccccc4)C3)c12` (stereo partly drawn) [Example 432, (7R)-2-{1-[(1-benzoyl-3-fluoroazetidin-3-yl)methyl]-2-[1-(cyclopropylmethyl)-1H-indol-2-yl]-7-methoxy-1H-1,3-benzodiazole-5-carbonyl}-2-azabicyclo[2.2.1]heptan-7-amine] are within 1.5-fold of each other in IC50: 0.027 µM for the first, 0.031 µM for the second.

First: COc1cc(C(=O)N2CC3CCC2[C@@H]3N)cc2nc(-c3cc4ccccc4n3CC3CC3)n(CC3(C)CN(C(=O)c4ccccc4)C3)c12 (stereo partly drawn) [Example 426, (7R)-2-{1-[(1-benzoyl-3-methylazetidin-3-yl)methyl]-2-[1-(cyclopropylmethyl)-1H-indol-2-yl]-7-methoxy-1H-1,3-benzodiazole-5-carobnyl}-2-azabicyclo[2.2.1]heptan-7-amine]
Second: COc1cc(C(=O)N2CC3CCC2[C@@H]3N)cc2nc(-c3cc4cccnc4n3CC3CC3)n(CC3(C)CN(C(=O)c4ccccc4)C3)c12 (stereo partly drawn) [Example 444, (7R)-2-{1-[(1-benzoyl-3-methylazetidin-3-yl)methyl]-2-[1-(cyclopropylmethyl)-1H-pyrrolo[2,3-b]pyridin-2-yl]-7-methoxy-1H-1,3-benzodiazole-5-carbonyl}-2-azabicyclo[2.2.1]heptan-7-amine]
The IC50 of the first is 1.8-fold lower: 0.024 µM for the first, 0.043 µM for the second. The first is the more potent here.

`COc1cc(C(=O)N2CC3CCC2[C@@H]3N)cc2nc(-c3cc4cccnc4n3CC3CC3)n(CC3CN(C(=O)c4cc(F)cc(F)c4)C3)c12` (stereo partly drawn) [Example 427, (7R)-2-{2-[1-(cyclopropylmethyl)-1H-pyrrolo[2,3-b]pyridin-2-yl]-1-{[1-(3,5-difluorobenzoyl)azetidin-3-yl]methyl}-7-methoxy-1H-1,3-benzodiazole-5-carbonyl}-2-azabicyclo[2.2.1]heptan-7-amine] and `COc1cc(C(=O)N2CC3CCC2[C@@H]3N)cc2nc(-c3cc4cccnc4n3CC3CC3)n(CC3CN(C(=O)c4c(F)cccc4F)C3)c12` (stereo partly drawn) [Example 431, (7R)-2-{2-[1-(cyclopropylmethyl)-1H-pyrrolo[2,3-b]pyridin-2-yl]-1-{[1-(2,6-difluorobenzoyl)azetidin-3-yl]methyl}-7-methoxy-1H-1,3-benzodiazole-5-carbonyl}-2-azabicyclo[2.2.1]heptan-7-amine] are within 1.5-fold of each other in IC50: 0.024 µM for the first, 0.03 µM for the second.

`COc1cc(C(=O)N2CC3CCC2[C@@H]3N)cc2nc(-c3cc4cccnc4n3CC3CC3)n(CC3CN(C(=O)c4ccccc4Cl)C3)c12` (stereo partly drawn) [Example 428, (7R)-2-(1-{[1-(2-chlorobenzoyl)azetidin-3-yl]methyl}-2-[1-(cyclopropylmethyl)-1H-pyrrolo[2,3-b]pyridin-2-yl]-7-methoxy-1H-1,3-benzodiazole-5-carbonyl)-2-azabicyclo[2.2.1]heptan-7-amine] and `COc1cc(C(=O)N2CC3CCC2[C@@H]3N)cc2nc(-c3cc4cccnc4n3CC3CC3)n(CC3CN(C(=O)c4ccccc4F)C3)c12` (stereo partly drawn) [Example 442, (7R)-2-{2-[1-(cyclopropylmethyl)-1H-pyrrolo[2,3-b]pyridin-2-yl]-1-{[1-(2-fluorobenzoyl)azetidin-3-yl]methyl}-7-methoxy-1H-1,3-benzodiazole-5-carbonyl}-2-azabicyclo[2.2.1]heptan-7-amine] are within 1.5-fold of each other in IC50: 0.028 µM for the first, 0.039 µM for the second.

`COc1cc(C(=O)N2CC3CCC2[C@@H]3N)cc2nc(-c3cc4cccnc4n3CC3CC3)n(CC3CN(C(=O)c4ccc(Cl)cc4)C3)c12` (stereo partly drawn) [Example 429, (7R)-2-(1-{[1-(4-chlorobenzoyl)azetidin-3-yl]methyl}-2-[1-(cyclopropylmethyl)-1H-pyrrolo[2,3-b]pyridin-2-yl]-7-methoxy-1H-1,3-benzodiazole-5-carbonyl)-2-azabicyclo[2.2.1]heptan-7-amine] and `COc1cc(C(=O)N2CC3CCC2[C@@H]3N)cc2nc(-c3cc4cccnc4n3CC3CC3)n(CC3CN(C(=O)c4ccc(F)cc4F)C3)c12` (stereo partly drawn) [Example 434, (7R)-2-{2-[1-(cyclopropylmethyl)-1H-pyrrolo[2,3-b]pyridin-2-yl]-1-{[1-(2,4-difluorobenzoyl)azetidin-3-yl]methyl}-7-methoxy-1H-1,3-benzodiazole-5-carbonyl}-2-azabicyclo[2.2.1]heptan-7-amine] are within 1.5-fold of each other in IC50: 0.029 µM for the first, 0.033 µM for the second.

`COc1cc(C(=O)N2CC3CCC2[C@@H]3N)cc2nc(-c3cc4cccnc4n3CC3CC3)n(CC3CN(C(=O)C4CCC(F)(F)C4)C3)c12` (stereo partly drawn) [Example 430, (7R)-2-{2-[1-(cyclopropylmethyl)-1H-pyrrolo[2,3-b]pyridin-2-yl]-1-{[1-(3,3-difluorocyclopentanecarbonyl)azetidin-3-yl]methyl}-7-methoxy-1H-1,3-benzodiazole-5-carbonyl}-2-azabicyclo[2.2.1]heptan-7-amine] and `COc1cc(C(=O)N2CC(Cn3c(-c4cc5cccnc5n4CC4CC4)nc4cc(C(=O)N5CC6CCC5[C@@H]6N)cc(OC)c43)C2)ccn1` (stereo partly drawn) [Example 441, (7R)-2-{2-[1-(cyclopropylmethyl)-1H-pyrrolo[2,3-b]pyridin-2-yl]-7-methoxy-1-{[1-(2-methoxypyridine-4-carbonyl)azetidin-3-yl]methyl}-1H-1,3-benzodiazole-5-carbonyl}-2-azabicyclo[2.2.1]heptan-7-amine] are within 1.5-fold of each other in IC50: 0.03 µM for the first, 0.038 µM for the second.

`COc1cc(C(=O)N2CC3CCC2[C@@H]3N)cc2nc(-c3cc4ccccc4n3CC3CC3)n(CC3CN(C(=O)c4ccc(C#N)cn4)C3)c12` (stereo partly drawn) [Example 435, 6-[3-({5-[(7R)-7-amino-2-azabicyclo[2.2.1]heptane-2-carobnyl]-2-[1-(cyclopropylmethyl)-1H-indol-2-yl]-7-methoxy-1H-1,3-benzodiazol-1-yl}methyl)azetidine-1-carobnyl]pyridine-3-carbonitrile] and `COc1cc(C(=O)N2CC3CCC2[C@@H]3N)cc2nc(-c3cc4ccccc4n3CC3CC3)n(CC3CN(C(=O)c4ccncn4)C3)c12` (stereo partly drawn) [Example 437, (7R)-2-{2-[1-(cyclopropylmethyl)-1H-indol-2-yl]-7-methoxy-1-{[1-(pyrimidine-4-carbonyl)azetidin-3-yl]methyl}-1H-1,3-benzodiazole-5-carbonyl}-2-azabicyclo[2.2.1]heptan-7-amine] are the same in IC50: 0.034 µM for the first, 0.034 µM for the second.

`COc1cc(C(=O)N2CC3CCC2[C@@H]3N)cc2nc(-c3cc4ccccc4n3CC3CC3)n(CC3CN(C(=O)c4cnccn4)C3)c12` (stereo partly drawn) [Example 436, (7R)-2-{2-[1-(cyclopropylmethyl)-1H-indol-2-yl]-7-methoxy-1-{[1-(pyrazine-2-carbonyl)azetidin-3-yl]methyl}-1H-1,3-benzodiazole-5-carbonyl}-2-azabicyclo[2.2.1]heptan-7-amine] and `COc1cc(C(=O)N2CC3CCC2[C@@H]3N)cc2nc(-c3cc4ccccc4n3CC3CC3)n(CC3CN(C(=O)c4cncnc4)C3)c12` (stereo partly drawn) [Example 443, (7R)-2-{2-[1-(cyclopropylmethyl)-1H-indol-2-yl]-7-methoxy-1-{[1-(pyrimidine-5-carbonyl)azetidin-3-yl]methyl}-1H-1,3-benzodiazole-5-carbonyl}-2-azabicyclo[2.2.1]heptan-7-amine] are within 1.5-fold of each other in IC50: 0.034 µM for the first, 0.042 µM for the second.

`COc1cc(C(=O)N2CC3CCC2[C@@H]3N)cc2nc(-c3cc4cccnc4n3CC3CC3)n(CC3(F)CN(C(=O)c4ccccc4)C3)c12` (stereo partly drawn) [Example 438, (7R)-2-{1-[(1-benzoyl-3-fluoroazetidin-3-yl)methyl]-2-[1-(cyclopropymethyl)-1H-pyrrolo[2,3-b]pyridin-2-yl]-7-methoxy-1H-1,3-benzodiazole-5-carbonyl}-2-azabicyclo[2.2.1]heptan-7-amine] and `N[C@@H]1C2CCC1N(C(=O)c1cc(F)c3c(c1)nc(-c1cc4cccnc4n1CC1CC1)n3CC1CN(C(=O)c3ccccc3)C1)C2` (stereo partly drawn) [Example 439, (7R)-2-{1-[(1-benozylazetidin-3-yl)methyl]-2-[1-(cyclopropylmethyl)-1H-pyrrolo[2,3-b]pyridin-2-yl]-7-fluoro-1H-1,3-benzodiazol-5-carbonyl}-2-azabicyclo[2.2.1]heptan-7-amine] are within 1.5-fold of each other in IC50: 0.035 µM for the first, 0.036 µM for the second.

Work on `COc1cc(C(=O)N2CC3CCC2[C@@H]3N)cc2nc(-c3cc4ccccc4n3CC3CC3)n(CC3CN(C(=O)c4ccc(Cl)s4)C3)c12` (stereo partly drawn) [Example 445, (7R)-2-(1-{[1-(5-chlorothiophene-2-carbonyl)azetidin-3-yl]methyl}-2-[1-(cyclopropylmethyl)-1H-indol-2-yl]-7-methoxy-1H-1,3-benzodiazole-5-carbonyl)-2-azabicyclo[2.2.1]heptan-7-amine] yielded an IC50 of 0.043 µM.
